Source: patent publication US20100168067A1, “BIOMARKERS FOR BISPHOSPHONATE-RESPONSIVE BONE DISORDERS” (UCL BUSINESS PLC, priority 2006, published 2010)

Tested on: total hip mineralisation in subjects treated for OP
[1] = response by genotype TT vs TG/GG at rs2297480, annualised change in total hip densitometry, 95% CI in brackets

Experimental: Genetic samples were obtained from subjects enrolled in an ongoing clinical programme for treatment of OP through the use of regular intravenous Pamidronate (30 mg three monthly).
By such methodology, 53 subjects (each with two densitometric estimates taken in the first 24 month of Pamidronate therapy) were respectively assigned drug response phenotypes according to their display of ongoing demineralisation (‘response failure’) or stable or improving mineralising (‘response success’). This was achieved by comparison of derived annualised rates of change in projected densitometric estimates of total hip mineralisation.
DNA was extracted from blood samples using standard organic phase methods and PCR amplification and DNA sequencing was carried out using standard protocols (dye-terminator sequencing using an ABI3100 automated DNA sequencer).

Question: With `NCCC(O)(P(=O)(O)O)P(=O)(O)O` [Pamidronate] as the molecule, how does the “number of subjects with 'response failure' (ongoing demineralisation)” value (TT genotype at rs2297480, intravenous Pamidronate 30 mg three monthly, first 24 months, 53 subjects) read?
Answer: 2

Question: What about the “odds ratio for the >-2.7 cutoff” value [1] of the same molecule?
Answer: 12.0833 (95% CI: 2.2961 to 63.5874)

Question: And the “odds ratio for the pos/neg cutoff” value [1]?
Answer: 3.1818 (95% CI: 1.0192 to 9.9327)
